Assay results taken from US20240376148A1, “MEDICAMENT FOR INHIBITING DIETARY OBESITY AND POLYPEPTIDE USED THEREFOR” (INSTITUTE OF ZOOLOGY, CHINESE ACADEMY OF SCIENCES, priority 2022, published 2024).

Tests used:
[1] = Macaque experiment (high-fat diet); format: in vivo; settings: rhesus monkeys, high-fat diet (45 kcal % fat), intragastric 0.5 mg-1 mg/Kg once/day, after 6 weeks
Protocol: Rhesus monkeys were used in the macaque experiment. 9 in total, […] at the beginning of the experiment, and each weighed 2.5±0.5 Kg. They were raised individually in the same environment, in a room with suitable temperature and humidity control, and the light/dark cycle was 12 hours, free diet and drinking water, and fed with standard laboratory feed (#2150230401). After 7 days of adaptation, they were randomly assigned to 3 groups with 3 animals in each group, and each group was subjected to different feeding treatments, specifically as follows (see figure e of FIG. 7):
NC group (i.e. normal diet group): fed with standard laboratory feed (#2150230401), free diet and drinking water for 6 weeks.
HFD group (i.e. high-fat diet group): fed with high-fat diet (45 kcal % fat), free diet and drinking water for 6 weeks.
D3 group (i.e. high-fat diet+D3 medicine intragastric administration group): fed with high-fat diet (45 kcal % fat), free diet and drinking water for 6 weeks. HD medicines were selected as D3, intragastrically administrated with D3, 0.5 mg-1 mg/Kg body weight, and intragastrically administrated according to 1.7 ml/Kg body weight, once/day.
Food intake (unit: g/only/week) and body weight were monitored weekly. Fresh excreta of the above animals were collected and stored at −80° C. for further analysis of macaque fecal flora (method as above).

[2] = system: A. muciniphila; experiment: qPCR of abundance of A. muciniphila in intestine of rats; format: in vivo, Sprague Dawley (SD) rats; settings: figure d of FIG. 7 (rats), p<0.05
From the text: FIGS. 7A-7H are a graph showing the effect of using D3 on rats and rhesus monkeys in Example 2 of the present invention. FIG. 7A is the schematic diagram of sampling time point in rats; FIG. 7B is the graph showing the results of the growth rate of body weight with different feeding treatments of the rat; FIG. 7C is the graph showing the results of the short-term feed intake measurement of the rat; FIG. 7D is the graph showing the results of the qPCR detection of the abundance of A. muciniphila in intestine of rats with different feeding treatment; FIG. 7E is a schematic diagram of the sampling time point in rhesus monkeys; FIG. 7F is the graph showing the results of the growth rate of body weight with different feeding treatments of rhesus monkeys; FIG. 7G is the feed intake monitoring graphs of rhesus monkeys with different feeding treatments; FIG. 7H is the graph showing the results of the qPCR detection of the abundance of A. muciniphila in intestine of rhesus monkeys with different feeding treatment. The data shown in the figure are mean±standard deviation, the number of repetitions is 5-10, and the significant difference of each group is analyzed by Wilcoxon test. * representing a significance analysis result of P<0.05, ** representing a significance analysis result of P<0.01.
(§1) Body weights were monitored weekly. […]

[3] = GF mice experiment (high-fat diet); format: in vivo, Germ-free (GF) C57B1/6 mice
From the text: To further determine the relative contribution of the microbiota to the anti-obesity effects of HD, D3 was chosen for GF mice experiment.
Germ-free (GF) C57B1/6 mice were used in the GF mice experiment, kept in a germ-free isolator, and their GF status was verified by fecal PCR every month. At the beginning of the experiment, germ-free (GF) C57B1/6 mice were 4 weeks old, each weighed 14±1 g. They were raised in a room with suitable temperature and humidity control, and the light/dark cycle was 12 hours, free diet and drinking water, and fed with standard laboratory feed (growth and reproduction feed, SPFSLFZ003, product of SPF (Beijing) Experimental Animal Technology Co., Ltd.), after one week of adaptation, they were randomly assigned to each cage, 4-6 mice per cage. A total of 3 treatments were set up, each with 1 cage, and each treatment was subjected to different feeding treatments, specifically as follows:
NC group (i.e. normal diet group): fed with standard laboratory feed (also known as growth and reproduction feed, SPFSLFZ003), free diet and drinking water for 8 weeks.
HFD group (i.e. high-fat diet group): fed with high-fat diet, the high-fat diet used was rodent feed (containing 60 kcal % fat, D12492), free diet and drinking water for 8 weeks.
D3 group (i.e. high-fat diet+D3 medicine intragastric administration group): fed with high-fat diet, free diet and drinking water. Intragastrically administrated with D3 medicine, 0.75 mg-3 mg/Kg body weight, 0.2 ml, once/day for 8 weeks.
Food intake and body weight were monitored weekly.
After the experiment on GF mice, the mice were killed by cervical dislocation. The heart, liver, spleen, lung, kidney, blood, ileum, cecum, and colon were harvested, immediately placed in liquid nitrogen, and stored at −80° C. for further analysis. Precisely dissected and subcutaneous and visceral fat deposits were weighed.

[4] = system: UGN; experiment: ELISA detection of serum UGN in macaques; format: in vivo; settings: macaque, not significant (p=0.06)
[5] = system: fecal flora; experiment: 16s amplicon sequencing of fecal flora of SPF mice; format: in vivo; settings: SPF mice feces
Protocol: At this time, in order to further confirm whether the reason for the weight loss of the SPF mice was related to the change of the ecological structure of the intestinal flora, the feces of mice in NC, HFD and D3 groups collected in the previous SPF mice experiment were analyzed by 16 s amplicon sequencing. sequencing method (reference: Quan, LH, et al. Myristoleic acid produced by enterococci reduces obesity through brown adipose tissue activation. Gut 69, 1239-1247 (2020).) was used to analyze the fecal flora of mice.

[6] = Rat feeding experiment (high-fat diet); format: in vivo, Sprague Dawley (SD) rats; settings: SD rats, 10 weeks
Protocol: Sprague Dawley (SD) rats were used in the rat experiment. At the beginning of the experiment, the rats were 4 weeks old, and each weighed 137±5 g. They were raised in a room with suitable temperature and humidity control, and the light/dark cycle was 12 hours, free diet and drinking water, and fed with standard laboratory feed (a growth and reproduction feed, SPFSLFZ003). After one week of adaptation, they were randomly assigned to a cage. HD treatment was represented by D3, a total of 3 treatments were set up, and each treatment was subjected to different feeding treatments, specifically as follows (see figure a of FIG. 7):
NC group (i.e. normal diet group): 8 rats were fed with standard laboratory feed (also known as growth and reproduction feed, SPFSLFZ003), free diet and drinking water for 10 weeks.
HFD group (i.e. high-fat diet group): 8 rats were fed with high-fat diet, the high-fat diet used was rodent feed (containing 60 kcal % fat, D12492), free diet and drinking water for 10 weeks.
D3 group (i.e. high-fat diet+D3 medicine intragastric administration group): 10 rats were fed with high-fat diet, free diet and drinking water. Intragastrically administrated with HD (choose D3), 0.5 mg-2 mg/Kg body weight, 0.5 ml, once/day for 10 weeks.
as §1

RTRYCRTGR [D3]
growth rate of body weight [1]: decreased significantly
relative abundance of A. muciniphila in the intestine by qPCR [2]: significantly increased
subcutaneous and visceral fat weight (inguinal subcutaneous, epididymis, perinephric) vs HFD group ([3]; 8 weeks): significantly lower than that of the HFD group
weekly feed intake vs control HFD group ([3]; after 3-4 weeks): significant gap
body weight compared with the HFD group ([3]; intragastric 0.75 mg-3 mg/Kg once/day, 8 weeks): decreased significantly
UGN levels in the serum [4]: Increased
abundance of Bacteroides and A. muciniphila (LEfSc analysis) [5]: significant increase
abundance of Prevotella, Desulfovibrio and Lawsonia (LEfSc analysis) [5]: significant decrease
fecal flora (diversity analysis and PCOA) vs HFD group [5]: significantly different from that of the HFD group
decrease of growth rate of body weight ([6]; vs HFD group): 8.96±3.11%
body weight compared with the HFD group ([6]; intragastric 0.5 mg-2 mg/Kg once/day): significantly lower than that of the HFD group
